Experimental data published in patent publication US10428082B2, “Triazole derivatives of melampomagnolide B and methods of use thereof” (BioVentures, LLC, priority 2016, dated 2019).

How the values were obtained:
Test in all cases: NCI 60 growth inhibition
Format in all cases: cell-based, human
SW-620 = details: Homo sapiens; SW-620, Colon Cancer, Table 2
Procedure: (§1) The above triazole derivatives of melampomagnolide B were evaluated for growth inhibitory properties against an NCI panel of 60 human cancer cell lines derived from nine human cancer cell types, grouped into disease sub-panels that represent leukemia, lung, colon, central nervous system (CNS), melanoma, renal, ovary, breast, and prostate cancer cells. Growth inhibitory (GI50) effects were measured as a function of the variation of optical density as a percentage of control.

A498 = details: Homo sapiens; A498, Renal Cancer, Table 2
Procedure: as §1

OVCAR-5 = details: Homo sapiens; OVCAR-5, Ovarian Cancer, Table 2
Procedure: as §1

SF-268 = details: Homo sapiens; SF-268, CNS Cancer, Table 2
Procedure: as §1

HOP-62 = details: Homo sapiens; HOP-62, Non-Small Cell Lung Cancer, Table 2
Procedure: as §1

SN12C = details: Homo sapiens, Renal Cancer, Table 2
Procedure: as §1

CCRF-CEM = details: Homo sapiens, Leukemia, Table 2
Procedure: as §1

ACHN = details: Homo sapiens, Renal Cancer, Table 2
Procedure: as §1

BT-549 = details: Homo sapiens; BT-549, Breast Cancer, Table 2
Procedure: as §1

KM12 = details: Homo sapiens; KM12, Colon Cancer, Table 2
Procedure: as §1

MALME-3M = details: Homo sapiens, Melanoma, Table 2
Procedure: as §1

T-47D = details: Homo sapiens, T47D, Breast Cancer, Table 2
Procedure: as §1

NCI-H460 = details: Homo sapiens; NCI-H460, Non-Small Cell Lung Cancer, Table 2
Procedure: as §1

RPMI-8226 = details: Homo sapiens; RPMI-8226, Leukemia, Table 2
Procedure: as §1

SF-539 = details: Homo sapiens; SF-539, CNS Cancer, Table 2
Procedure: as §1

K-562 = details: Homo sapiens, K562; K-562, Leukemia, Table 2
Procedure: as §1

CAKI-1 = details: Homo sapiens; CAKI-1, Renal Cancer, Table 2
Procedure: as §1

SK-MEL-5 = details: Homo sapiens; SK-MEL-5, Melanoma, Table 2
Procedure: as §1

M14 = details: Homo sapiens; M14, Melanoma, Table 2
Procedure: as §1

SF-295 = details: Homo sapiens; SF-295, CNS Cancer, Table 2
Procedure: as §1

MOLT-4 = details: Homo sapiens; MOLT-4, Leukemia, Table 2
Procedure: as §1

NCI-H226 = details: Homo sapiens; NCI-H226, Non-Small Cell Lung Cancer, Table 2
Procedure: as §1

MCF7 = details: Homo sapiens; MCF7, Breast Cancer, Table 2
Procedure: as §1

OVCAR-8 = details: Homo sapiens; OVCAR-8, Ovarian Cancer, Table 2
Procedure: as §1

HCT-116 = details: Homo sapiens; HCT-116, Colon Cancer, Table 2
Procedure: as §1

COLO 205 = details: Homo sapiens; COLO 205, Colon Cancer, Table 2
Procedure: as §1

MDA-MB-435 = details: Homo sapiens; MDA-MB-435, Melanoma, Table 2
Procedure: as §1

HOP-92 = details: Homo sapiens; HOP-92, Non-Small Cell Lung Cancer, Table 2
Procedure: as §1

MDA-MB-231/ATCC = details: Homo sapiens, Breast Cancer, Table 2
Procedure: as §1

TK-10 = details: Homo sapiens; TK-10, Renal Cancer, Table 2
Procedure: as §1

A549/ATCC = details: Homo sapiens, Non-Small Cell Lung Cancer, Table 2
Procedure: as §1

SR = details: Homo sapiens, Leukemia, Table 2
Procedure: as §1

UO-31 = details: Homo sapiens; UO-31, Renal Cancer, Table 2
Procedure: as §1

SK-MEL-2 = details: Homo sapiens; SK-MEL-2, Melanoma, Table 2
Procedure: as §1

OVCAR-3 = details: Homo sapiens; OVCAR-3, Ovarian Cancer, Table 2
Procedure: as §1

NCI-H23 = details: Homo sapiens; NCI-H23, Non-Small Cell Lung Cancer, Table 2
Procedure: as §1

RXF 393 = details: Homo sapiens, RXF 393, RXF 393, Renal Cancer, Table 2
Procedure: as §1

HL-60(TB) = details: Homo sapiens; HL-60(TB), Leukemia, Table 2
Procedure: as §1

OVCAR-4 = details: Homo sapiens; OVCAR-4, Ovarian Cancer, Table 2
Procedure: as §1

SNB-75 = details: Homo sapiens; SNB-75, CNS Cancer, Table 2
Procedure: as §1

| SMILES | GI50 (SW-620) [nM] | GI50 (A498) [nM] | GI50 (OVCAR-5) [nM] | GI50 (SF-268) [nM] | GI50 (HOP-62) [nM] | GI50 (SN12C) [nM] | GI50 (CCRF-CEM) [nM] | GI50 (ACHN) [nM] | GI50 (BT-549) [nM] | GI50 (KM12) [nM] | GI50 (MALME-3M) [nM] | GI50 (T-47D) [nM] | GI50 (NCI-H460) [nM] | GI50 (RPMI-8226) [nM] | GI50 (SF-539) [nM] | GI50 (K-562) [nM] | GI50 (CAKI-1) [nM] | GI50 (SK-MEL-5) [nM] | GI50 (M14) [nM] | GI50 (SF-295) [µM] | also measured |
| --- | --- | --- | --- | --- | --- | --- | --- | --- | --- | --- | --- | --- | --- | --- | --- | --- | --- | --- | --- | --- | --- |
| C=C1C(=O)O[C@H]2[C@H]1CC/C(Cn1cc(-c3cccc(Cl)c3)nn1)=C\CC[C@@]1(C)O[C@@H]21 [JVM 4-25, (1aR,7aS,10aS,10bS,E)-5((4-(3-Chlorophenyl)-1H-1,2,3-triazol-1-yl)methyl)-1a-methyl-8-methylene-2,3,6,7,7a,8,10a,10b-octahydrooxireno[2′,3′:9,10]cyclodeca[1,2-b]furan-9(1aH)-one] | 330 | 1520 | 1210 | 1590 | 1940 | 1400 | 200 | 180 | 770 | 1780 | 1200 | 830 | 2130 | 500 | 250 | 400 | 860 | 1700 | 790 | 3.41 | GI50 (MOLT-4): 310 nM; GI50 (NCI-H226): 1710 nM; GI50 (MCF7): 310 nM; GI50 (OVCAR-8): 1310 nM; GI50 (HCT-116): 160 nM; GI50 (COLO 205): 410 nM; GI50 (MDA-MB-435): 590 nM; GI50 (HOP-92): 250 nM; GI50 (MDA-MB-231/ATCC): 1090 nM; GI50 (TK-10): 990 nM; GI50 (A549/ATCC): 1790 nM; GI50 (SR): 230 nM; GI50 (UO-31): 1080 nM; GI50 (SK-MEL-2): 1660 nM; GI50 (OVCAR-3): 470 nM; GI50 (NCI-H23): 1580 nM; GI50 (RXF 393): 550 nM; GI50 (HL-60(TB)): 330 nM; GI50 (OVCAR-4): 1090 nM; GI50 (SNB-75): 1160 nM |
| C=C1C(=O)O[C@H]2[C@H]1CC/C(Cn1cc(-c3ccc(F)cc3)nn1)=C\CC[C@@]1(C)O[C@@H]21 [JVM 4-26] | 420 | 1820 | 1470 | 1690 | 3040 | 1640 | 240 | 180 | 830 | 1700 | 1400 | 740 | 3660 | 1410 | 270 | 940 | 1030 | 1740 | 940 | 5.73 | GI50 (MOLT-4): 380 nM; GI50 (NCI-H226): 2480 nM; GI50 (MCF7): 350 nM; GI50 (OVCAR-8): 1660 nM; GI50 (HCT-116): 290 nM; GI50 (COLO 205): 450 nM; GI50 (MDA-MB-435): 1000 nM; GI50 (HOP-92): 340 nM; GI50 (MDA-MB-231/ATCC): 1220 nM; GI50 (TK-10): 1240 nM; GI50 (A549/ATCC): 3370 nM; GI50 (SR): 250 nM; GI50 (UO-31): 1220 nM; GI50 (SK-MEL-2): 1830 nM; GI50 (OVCAR-3): 490 nM; GI50 (NCI-H23): 1780 nM; GI50 (RXF 393): 870 nM; GI50 (HL-60(TB)): 720 nM; GI50 (OVCAR-4): 1290 nM; GI50 (SNB-75): 1250 nM |
